Converted amounts (≈) assume the structure as drawn.
What was measured:
[1] = biological target: T1, Nitric oxide synthase, inducible (Mus musculus, UniProt P29477); assay: Inhibition of iNOS-mediated nitric oxide production in LPS-stimulated mouse RAW264.7 cells after 24 hrs by Griess reaction analysis; assay type: cell-based
T1 sequence (P29477 whole entry): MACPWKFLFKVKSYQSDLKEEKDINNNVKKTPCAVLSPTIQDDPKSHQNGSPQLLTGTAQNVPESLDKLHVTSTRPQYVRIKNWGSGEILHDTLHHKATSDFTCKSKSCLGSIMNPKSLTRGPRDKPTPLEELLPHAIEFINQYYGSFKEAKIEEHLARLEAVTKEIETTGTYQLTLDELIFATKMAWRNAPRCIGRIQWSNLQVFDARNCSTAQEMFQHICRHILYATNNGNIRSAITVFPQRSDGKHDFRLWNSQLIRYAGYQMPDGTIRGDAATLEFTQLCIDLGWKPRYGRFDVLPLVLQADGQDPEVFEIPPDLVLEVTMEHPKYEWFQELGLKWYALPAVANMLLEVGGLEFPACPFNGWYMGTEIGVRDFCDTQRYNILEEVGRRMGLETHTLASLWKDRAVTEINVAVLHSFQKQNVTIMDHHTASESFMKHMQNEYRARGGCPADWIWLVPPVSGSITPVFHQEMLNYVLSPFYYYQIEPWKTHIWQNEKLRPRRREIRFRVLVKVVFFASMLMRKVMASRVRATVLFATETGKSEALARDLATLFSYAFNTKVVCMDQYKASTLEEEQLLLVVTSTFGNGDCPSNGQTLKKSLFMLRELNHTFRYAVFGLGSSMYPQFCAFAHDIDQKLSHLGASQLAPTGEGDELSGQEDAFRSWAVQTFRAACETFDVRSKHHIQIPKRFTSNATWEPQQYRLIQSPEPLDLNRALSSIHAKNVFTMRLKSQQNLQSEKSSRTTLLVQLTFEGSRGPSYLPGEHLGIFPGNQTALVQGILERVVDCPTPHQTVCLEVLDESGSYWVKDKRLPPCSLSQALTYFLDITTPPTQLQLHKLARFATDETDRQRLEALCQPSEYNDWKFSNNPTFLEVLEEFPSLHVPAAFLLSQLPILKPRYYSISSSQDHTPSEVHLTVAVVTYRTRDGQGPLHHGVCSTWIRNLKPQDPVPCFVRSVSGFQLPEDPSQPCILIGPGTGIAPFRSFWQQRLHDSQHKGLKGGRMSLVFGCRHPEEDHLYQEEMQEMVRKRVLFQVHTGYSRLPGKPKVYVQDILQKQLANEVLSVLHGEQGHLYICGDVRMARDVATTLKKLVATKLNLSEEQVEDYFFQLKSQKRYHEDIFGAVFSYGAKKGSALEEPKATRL

[2] = test system: RAW264.7; assay: Cytotoxicity against LPS-stimulated mouse RAW264.7 cells at 20 ug/ml; assay type: cell-based
[3] = test system: K562; assay: Cytotoxicity against human K562 cells assessed as inhibition of cell proliferation after 24 hrs; assay type: functional, cell-based; conditions: K562, 24 h
[4] = test system: HL-60; assay: Cytotoxicity against human HL60 cells assessed as inhibition of cell proliferation after 24 hrs; assay type: functional, cell-based; conditions: HL-60, 24 h

Row | SMILES | IC50 [1] [µM] | Activity [2] | IC50 [3] [µg/mL] | IC50 [4] [µg/mL]
1 | COc1cc(CCC(=O)O)oc(=O)c1 | > 20 | Non-toxic | – | –
2 | COCC1(O)OC(=O)C=C1C (racemic) | > 20 | Non-toxic | – | –
3 | CCOC(=O)CC[C@@H](C)[C@H]1CC(=O)[C@@]2(C)C3=C(C(=O)C[C@]12C)[C@@]1(C)CCC(=O)C(C)(C)[C@@H]1CC3=O [ETHYL LUCIDENATE F] | > 20 | Non-toxic | – | –
4 | CC(CC(=O)C[C@@H](C)C1=CC(=O)[C@@]2(C)C3=C(C(=O)C[C@]12C)[C@@]1(C)CCC(=O)C(C)(C)[C@@H]1C[C@@H]3O)C(=O)O (some centres not stated) | > 20 | Non-toxic | – | –

The next molecules have a lower IC50 [1] than those just listed; values first:

Row | IC50 [1] [µM] | SMILES | Activity [2] | IC50 [3] [µg/mL] | IC50 [4] [µg/mL]
5 | 8.9 | COC(=O)C(C)CC(=O)C[C@@H](C)[C@H]1CC(=O)[C@@]2(C)C3=C(C(=O)C(=O)[C@]12C)[C@@]1(C)CCC(=O)C(C)(C)[C@@H]1CC3=O (some centres not stated) | Non-toxic | – | –
6 | 6.2 | CCOC(=O)C(C)CC(=O)C[C@@H](C)[C@H]1CC(=O)[C@@]2(C)C3=C(C(=O)C(=O)[C@]12C)[C@@]1(C)CCC(=O)C(C)(C)[C@@H]1CC3=O (some centres not stated) | Non-toxic | – | –
7 | 10.8 | CCOC(=O)CC[C@@H](C)[C@H]1CC(=O)[C@@]2(C)C3=C(C(=O)C[C@]12C)[C@@]1(C)CCC(=O)C(C)(C)[C@@H]1C[C@@H]3O [ETHYL LUCIDENATE A] | Non-toxic | 30 (≈ 61.6 µM) | 30 (≈ 61.6 µM)
8 | 5 | C/C(=C\CC[C@@H](C)[C@H]1CC[C@@]2(C)C3=C(C(=O)C[C@]12C)[C@@]1(C)CCC(=O)C(C)(C)[C@@H]1CC3=O)C(=O)O | Non-toxic | – | –
9 | 5 | C/C(=C\CC[C@@H](C)[C@H]1CC[C@@]2(C)C3=C([C@H](O)C[C@]12C)[C@@]1(C)CCC(=O)C(C)(C)[C@@H]1CC3=O)C(=O)O | Non-toxic | – | –
10 | 4.9 | CC(=O)O[C@H]1C[C@H]([C@H](C)CC(=O)CC(C)C(=O)O)[C@@]2(C)CC(=O)C3=C(CC[C@H]4C(C)(C)C(=O)CC[C@]34C)[C@]12C (some centres not stated) | Non-toxic | – | –
